# Marks after values point to notes of the source that are not given here.
# How the values were obtained:
# [1] = Stability in PBS at room temperature; format: physicochemical; settings: 48 hours, <0.1% DMSO
# KOP receptor [2] = target: T1, KOP receptor (Homo sapiens, UniProt P41145); assay: ERK 1/2 activation, inhibition; format: cell-based
# DOR [3] = target: T2, DOR (Homo sapiens, UniProt P41143); assay: High content imaging β-arrestin translocation assay, DOR antagonist (DOR HCS); format: cell-based; settings: antagonist; average; read-out: Potency, Antitarget DOR HCS
# Description: (§1) In this campaign, two assay platforms were employed to evaluate KOR activity and selectivity: the KOR1 DISCOVERX β-Arrestin […] assay and an imaging based β-arrestin translocation assay for confirmatory and selectivity assays. The KOR1 DISCOVERX β-Arrestin […] assay is a commercial platform for direct measurement of GPCR (G protein-coupled receptor) activation by detection of β-Arrestin binding to the KOR. […] In cells that stably express these fusion proteins, ligand stimulation results in the recruitment of β-Arrestin by the GPCR. This interaction encourages the complementation of the two β-galactosidase fragments resulting in the formation of a functional enzyme that converts substrate in the assay medium to a detectable signal. The imaging based high-content β-arrestin translocation assay is based upon the redistribution of β-Arrestin linked to green fluorescent protein (GFP) to the cell surface and detection (Barak, et al. (1997) J. Biol. Chem. 272:27497-27500).
# (§2) Initially, a portion (approximately 290,000 compounds) of the MLSMR compound collection was tested in the KOR1 DISCOVERX β-arrestin primary kappa opioid (KOP) agonist and antagonist screens (PUBCHEM AID 1777 and 1778, respectively) at a single concentration point (10 μM). […] These compounds were concurrently tested in a β-galactosidase counterscreen assay (PUBCHEM AID 1966) to assess the possibility that these compounds might inhibit the reporting enzyme. […] The KOR:DOR:MOR selectivity of the compounds was determined using the analogous β-arrestin translocation assays for the DOR (PUBCHEM AID 2370 and 2357, for agonists and antagonist, respectively) and the MOR (PUBCHEM AID 2352 and 2420, for agonists and antagonists, respectively).
# [4] = Hepatic microsome stability, human; format: in vitro ADME; settings: human microsomes, 1 hour
# Description: (§3) The microsomal stability assay is commonly used to rank compounds according to their metabolic stability. This assay addresses the pharmacologic question of how long the parent compound will remain circulating in plasma within the body.
# [5] = Plasma protein binding, mouse; format: in vitro ADME
# Description: Plasma protein binding is a measure of a drug's efficiency to bind to the proteins within blood plasma. The less bound a drug is, the more efficiently it can traverse cell membranes or diffuse. Highly plasma protein bound rugs are confined to the vascular space, thereby having a relatively low volume of distribution. In contrast, drugs that remain largely unbound in plasma are generally available for distribution to other organs and tissues. In the instant case, the Chemotype I antagonist 1{3} was marginally available with 88.46% and 80.07% bound to 1 μM and 10 μM mouse plasma protein, respectively, and 93.96% and 88.54% bound to 1 μM and 10 μM human plasma protein, respectively.
# KOP receptor [6] = target: T1, KOP receptor; assay: 35S-GTPγS coupling, inhibition; format: biochemical
# 5ht5a = 5ht5a (Homo sapiens, UniProt P47898); assay: PDSP radioligand binding assay
# Description: (§4) The compound was initially screened in radioligand binding assays at a constant concentration (10 μM) to identify possible activity of the compound. Results showing significant activity in the initial screen were selected for Ki determinations.
# (§5) As a representative of the Chemotype II series, the MLPCN probe molecule 2{8} was subjected to a binding assay panel of 44 GPCR and other molecular targets by the Pyschoactive Drug Screening Program (PDSP) (Table 10). The compound was initially screened in a radioligand binding assay at a constant concentration (10 μM) to identify possible activity of the compound. Results showing significant activity in the initial screen were selected for Ki determinations.
# Alpha1A = Alpha1A (Homo sapiens, UniProt P35348); assay: PDSP radioligand binding assay
# Description: as §4, §5
# Alpha2B = Alpha2B (Homo sapiens, UniProt P18089); assay: PDSP radioligand binding assay
# Description: as §4, §5
# 5ht2a = 5ht2a (Homo sapiens, UniProt P28223); assay: PDSP radioligand binding assay
# Description: as §4, §5
# D4 = D4 (Homo sapiens, UniProt P21917); assay: PDSP radioligand binding assay
# Description: as §4, §5
# H3 = H3 (Homo sapiens, UniProt Q9Y5N1); assay: PDSP radioligand binding assay
# Description: as §4, §5
# Sigma2 = Sigma2 (Rattus norvegicus, UniProt Q5U3Y7); assay: PDSP radioligand binding assay
# Description: as §4, §5
# H4 = H4 (Homo sapiens, UniProt Q9H3N8); assay: PDSP radioligand binding assay
# Description: as §4, §5
# physchem = assay: physchem
# Description: In addition to profiling the selectivity of this class of KOR ligands, basic pharmacological properties were assessed.
# [7] = pH 7.4
# Description: PAMPA is used as an in vitro model of passive, transcellular permeability. An artificial membrane immobilized on a filter is placed between a donor and acceptor compartment. At the start of the test, drug is introduced in the donor compartment (at various pH). Following the permeation period, the concentrations of compound in the donor compartment and acceptor compartment are measured using UV spectroscopy.
# [8] = Hepatic microsome stability, mouse; format: in vitro ADME; settings: mouse microsomes, 1 hour
# Description: as §3
# DOR [9] = target: T2, DOR; assay: PDSP radioligand binding assay
# Description: as §4, with “The broader selectivity of compound 1{3} was tested against additional targets and basic pharmacological properties were assessed. […] The” for “The”
# as §5
# MOR [10] = target: T3, MOR (Homo sapiens, UniProt P35372); assay: PDSP radioligand binding assay
# Description: as §4, with “The broader selectivity of compound 1{3} was tested against additional targets and basic pharmacological properties were assessed. […] The” for “The”
# as §5
# D3 = D3 (Homo sapiens, UniProt P35462); assay: PDSP radioligand binding assay
# Description: as §4, with “The broader selectivity of compound 1{3} was tested against additional targets and basic pharmacological properties were assessed. […] The” for “The”
# as §5
# MOR [11] = target: T3, MOR; assay: High content imaging based β-arrestin translocation assay, MOR agonist (MOR HCS); format: cell-based; settings: n = 2, read-out: Average Potency MOR HCS
# Description: as §1, §2
# [12] = system: Fa2N-4 immortalized human hepatocytes; assay: Hepatocyte toxicity; settings: read-out: LC50; Fa2N-4 hepatocytes
# [13] = Table 10, average of separate Ki determinations
# T2 sequence (P41143 whole entry, the tested form may be a part): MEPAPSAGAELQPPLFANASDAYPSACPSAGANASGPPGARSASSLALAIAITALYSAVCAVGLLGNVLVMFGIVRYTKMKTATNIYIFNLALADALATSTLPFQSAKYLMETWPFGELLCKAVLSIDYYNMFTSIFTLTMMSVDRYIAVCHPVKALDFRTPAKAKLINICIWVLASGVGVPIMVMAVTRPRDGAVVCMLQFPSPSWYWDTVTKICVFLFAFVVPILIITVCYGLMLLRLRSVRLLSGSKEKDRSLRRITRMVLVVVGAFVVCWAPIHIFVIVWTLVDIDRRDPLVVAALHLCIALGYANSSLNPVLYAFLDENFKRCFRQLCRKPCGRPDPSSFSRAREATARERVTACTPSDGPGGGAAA
# T3 sequence (P35372 whole entry): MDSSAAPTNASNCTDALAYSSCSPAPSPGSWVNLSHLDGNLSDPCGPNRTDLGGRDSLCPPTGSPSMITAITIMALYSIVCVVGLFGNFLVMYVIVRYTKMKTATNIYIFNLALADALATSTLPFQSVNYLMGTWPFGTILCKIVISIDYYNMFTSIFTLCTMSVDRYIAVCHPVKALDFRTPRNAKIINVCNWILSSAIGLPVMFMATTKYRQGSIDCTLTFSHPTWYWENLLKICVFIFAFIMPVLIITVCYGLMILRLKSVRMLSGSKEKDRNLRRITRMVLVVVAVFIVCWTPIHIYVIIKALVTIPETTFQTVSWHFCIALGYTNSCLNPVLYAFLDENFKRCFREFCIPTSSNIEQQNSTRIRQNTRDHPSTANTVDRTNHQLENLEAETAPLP
# Sequence of 5ht5a (P47898 whole entry, species assumed): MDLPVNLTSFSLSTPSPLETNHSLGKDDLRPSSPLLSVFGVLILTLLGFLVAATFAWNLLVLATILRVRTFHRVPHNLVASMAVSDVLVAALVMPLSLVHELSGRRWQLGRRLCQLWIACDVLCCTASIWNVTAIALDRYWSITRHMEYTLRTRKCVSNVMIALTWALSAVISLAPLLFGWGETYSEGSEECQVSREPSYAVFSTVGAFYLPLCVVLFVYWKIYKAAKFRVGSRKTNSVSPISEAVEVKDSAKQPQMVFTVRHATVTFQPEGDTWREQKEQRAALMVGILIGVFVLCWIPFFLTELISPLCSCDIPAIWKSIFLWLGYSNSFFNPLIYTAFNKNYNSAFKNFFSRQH
# Sequence of D3 (P35462 whole entry): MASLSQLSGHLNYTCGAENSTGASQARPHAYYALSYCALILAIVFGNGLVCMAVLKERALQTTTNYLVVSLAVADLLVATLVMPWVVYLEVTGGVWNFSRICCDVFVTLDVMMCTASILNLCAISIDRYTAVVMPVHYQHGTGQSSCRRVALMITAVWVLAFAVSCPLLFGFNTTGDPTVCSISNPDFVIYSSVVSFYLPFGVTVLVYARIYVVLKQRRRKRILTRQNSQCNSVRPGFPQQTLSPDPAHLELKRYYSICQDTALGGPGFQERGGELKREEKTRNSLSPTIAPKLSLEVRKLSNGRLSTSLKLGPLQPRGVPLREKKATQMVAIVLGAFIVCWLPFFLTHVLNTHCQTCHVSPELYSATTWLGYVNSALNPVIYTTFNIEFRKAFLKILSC
# Sequence of Sigma2 (Q5U3Y7 whole entry): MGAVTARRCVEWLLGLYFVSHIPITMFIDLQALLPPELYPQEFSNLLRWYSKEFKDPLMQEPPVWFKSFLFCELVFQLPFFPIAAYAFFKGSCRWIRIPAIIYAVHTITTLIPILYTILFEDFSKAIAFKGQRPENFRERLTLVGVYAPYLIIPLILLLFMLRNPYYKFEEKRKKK
# Sequence of Alpha2B (P18089 whole entry): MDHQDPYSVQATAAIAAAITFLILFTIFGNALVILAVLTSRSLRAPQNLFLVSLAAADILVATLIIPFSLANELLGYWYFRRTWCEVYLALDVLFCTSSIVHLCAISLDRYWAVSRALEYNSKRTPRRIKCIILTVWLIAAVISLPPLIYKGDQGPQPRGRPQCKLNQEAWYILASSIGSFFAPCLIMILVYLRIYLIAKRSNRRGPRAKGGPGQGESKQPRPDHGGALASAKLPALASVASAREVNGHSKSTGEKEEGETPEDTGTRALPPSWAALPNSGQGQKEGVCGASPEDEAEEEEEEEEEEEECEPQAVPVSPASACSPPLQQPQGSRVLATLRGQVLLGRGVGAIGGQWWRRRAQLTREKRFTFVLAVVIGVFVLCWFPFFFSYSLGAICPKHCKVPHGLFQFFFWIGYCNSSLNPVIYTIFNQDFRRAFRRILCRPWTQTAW
# Sequence of H4 (Q9H3N8 whole entry): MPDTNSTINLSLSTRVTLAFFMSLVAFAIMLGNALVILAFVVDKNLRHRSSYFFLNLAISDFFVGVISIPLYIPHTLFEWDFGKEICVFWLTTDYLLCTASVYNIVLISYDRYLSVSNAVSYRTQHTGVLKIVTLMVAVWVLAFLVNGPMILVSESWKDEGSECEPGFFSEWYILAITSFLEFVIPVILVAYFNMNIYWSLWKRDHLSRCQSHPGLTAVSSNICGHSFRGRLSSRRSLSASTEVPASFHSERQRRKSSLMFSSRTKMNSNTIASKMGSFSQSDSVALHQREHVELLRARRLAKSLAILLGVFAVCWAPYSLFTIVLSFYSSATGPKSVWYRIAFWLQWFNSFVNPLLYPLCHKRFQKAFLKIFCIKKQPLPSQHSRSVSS
# Sequence of 5ht2a (P28223 whole entry, species assumed): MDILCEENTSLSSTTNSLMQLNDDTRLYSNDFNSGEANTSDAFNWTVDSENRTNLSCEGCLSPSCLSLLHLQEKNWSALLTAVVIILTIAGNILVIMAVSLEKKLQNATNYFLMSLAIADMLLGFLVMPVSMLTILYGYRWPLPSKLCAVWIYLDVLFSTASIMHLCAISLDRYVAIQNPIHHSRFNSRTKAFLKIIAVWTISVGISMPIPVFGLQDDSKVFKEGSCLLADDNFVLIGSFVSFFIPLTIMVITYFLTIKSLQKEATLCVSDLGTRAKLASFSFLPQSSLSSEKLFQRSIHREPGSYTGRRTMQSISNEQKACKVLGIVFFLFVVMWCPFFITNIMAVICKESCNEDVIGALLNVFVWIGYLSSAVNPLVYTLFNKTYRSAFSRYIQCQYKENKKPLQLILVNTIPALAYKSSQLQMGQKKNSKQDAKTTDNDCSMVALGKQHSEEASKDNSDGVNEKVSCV
# Sequence of H3 (Q9Y5N1 whole entry): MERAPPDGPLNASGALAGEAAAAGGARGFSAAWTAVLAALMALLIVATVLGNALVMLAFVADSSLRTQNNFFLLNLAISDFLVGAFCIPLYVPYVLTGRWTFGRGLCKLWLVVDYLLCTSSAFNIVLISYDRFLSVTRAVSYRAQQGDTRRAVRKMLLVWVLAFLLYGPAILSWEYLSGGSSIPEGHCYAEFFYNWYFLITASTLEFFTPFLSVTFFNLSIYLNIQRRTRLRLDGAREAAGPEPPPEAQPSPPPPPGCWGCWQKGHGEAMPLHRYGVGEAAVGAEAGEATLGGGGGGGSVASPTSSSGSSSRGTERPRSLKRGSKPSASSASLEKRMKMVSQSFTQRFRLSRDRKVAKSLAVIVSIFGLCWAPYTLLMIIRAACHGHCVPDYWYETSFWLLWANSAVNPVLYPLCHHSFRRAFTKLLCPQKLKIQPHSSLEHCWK
# T1 sequence (P41145 whole entry): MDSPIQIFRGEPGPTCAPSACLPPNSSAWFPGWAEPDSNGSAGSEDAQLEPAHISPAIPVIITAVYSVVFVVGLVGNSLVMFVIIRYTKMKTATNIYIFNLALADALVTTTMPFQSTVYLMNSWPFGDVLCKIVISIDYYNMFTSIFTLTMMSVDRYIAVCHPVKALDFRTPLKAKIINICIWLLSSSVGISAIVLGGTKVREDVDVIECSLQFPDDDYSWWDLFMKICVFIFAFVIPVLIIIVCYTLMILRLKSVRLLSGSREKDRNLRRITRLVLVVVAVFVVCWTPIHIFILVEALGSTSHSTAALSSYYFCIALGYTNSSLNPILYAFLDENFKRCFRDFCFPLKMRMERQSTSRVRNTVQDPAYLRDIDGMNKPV
# Sequence of Alpha1A (P35348 whole entry): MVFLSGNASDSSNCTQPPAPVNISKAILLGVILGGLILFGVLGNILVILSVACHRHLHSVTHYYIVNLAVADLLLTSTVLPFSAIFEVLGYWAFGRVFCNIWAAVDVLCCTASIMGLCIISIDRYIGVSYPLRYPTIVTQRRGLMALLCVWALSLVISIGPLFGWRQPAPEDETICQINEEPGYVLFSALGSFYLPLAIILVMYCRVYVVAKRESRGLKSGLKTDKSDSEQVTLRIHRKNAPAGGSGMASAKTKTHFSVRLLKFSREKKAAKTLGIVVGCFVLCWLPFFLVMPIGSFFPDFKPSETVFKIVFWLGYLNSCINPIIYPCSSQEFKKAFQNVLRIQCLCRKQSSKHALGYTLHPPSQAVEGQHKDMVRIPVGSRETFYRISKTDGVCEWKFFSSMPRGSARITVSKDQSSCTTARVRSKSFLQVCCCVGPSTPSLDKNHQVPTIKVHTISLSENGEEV
# Sequence of D4 (P21917 whole entry): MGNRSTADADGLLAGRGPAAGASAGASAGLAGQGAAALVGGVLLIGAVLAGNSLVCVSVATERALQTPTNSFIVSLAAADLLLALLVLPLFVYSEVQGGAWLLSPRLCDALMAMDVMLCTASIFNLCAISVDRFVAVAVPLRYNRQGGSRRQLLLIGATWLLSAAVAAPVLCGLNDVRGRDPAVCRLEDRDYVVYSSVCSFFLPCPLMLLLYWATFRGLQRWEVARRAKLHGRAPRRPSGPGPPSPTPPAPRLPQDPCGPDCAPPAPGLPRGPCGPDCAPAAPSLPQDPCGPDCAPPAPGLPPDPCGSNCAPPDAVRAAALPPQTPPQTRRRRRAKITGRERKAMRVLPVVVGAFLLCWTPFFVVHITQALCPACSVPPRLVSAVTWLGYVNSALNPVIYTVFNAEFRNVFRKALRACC
smiles,measurement,setting,value
"COc1ccc(N2CCN(CCCNC(=O)Cn3c(=O)c4cccn4c4c(C)ccnc43)CC2)cc1 [Compound 1{3}, N-(3-(4-(4-Methoxyphenyl)piperazin-1-yl)propyl)-2-(1-methyl-6-oxopyrido[2,3-e]pyrrolo[1,2-a]pyrazin-5(6H)-yl)acetamide]",parent compound remaining,[1],94.42%
same,Imax (% NBNI),KOP receptor [2],90 ± 2^a % NBNI
same,IC50,DOR [3],> 32 µM
same,"microsomal stability, remaining",[4],22%
same,fraction unbound at 1 μM,"[5]; plasma, mouse, 1 μM, read-out: bound to plasma protein (converted)",0.115
same,fraction unbound at 10 μM,"[5]; plasma, mouse, 10 μM, read-out: bound to plasma protein (converted)",0.199
same,Imax (% NBNI),KOP receptor [6],117 ± 5^a % NBNI
same,Ki,5ht5a; Table 5,> 10 µM
same,Ki,Alpha1A; Table 5,> 10 µM
same,Ki,Alpha2B; Table 5,7.7 µM
same,Ki,5ht2a; Table 5,> 10 µM
same,Ki,D4; Table 5,> 10 µM
same,Ki,H3; Table 5,> 10 µM
same,Ki,Sigma2; Table 5,> 10 µM
same,Ki,H4; Table 5,> 10 µM
same,solubility,physchem; aqueous buffer,> 90 µg/mL
same,solubility,physchem; pH 5,96.6 µg/mL
same,solubility,physchem; pH 6.2,90.6 µg/mL
same,blood brain barrier PAMPA permeability,[7],51 ×10⁻⁶ cm/s
same,"microsomal stability, remaining",[8],7.3%
same,Ki,DOR [9]; Table 5,1.44 µM
same,Ki,MOR [10]; Table 5,1.58 µM
same,Ki,D3; Table 5,0.25 µM
Clc1ccc(CSc2nnc(-c3ccccn3)n2Cc2ccco2)cc1Cl [Compound 2{8}],"microsomal stability, remaining",[4],0.03%
same,bound to plasma,[5]; mouse plasma,> 99%
same,EC50,MOR [11],> 32 µM
same,Ki,5ht5a; Table 10,4.99 µM
same,Ki,Alpha1A; Table 10,> 10 µM
same,Ki,Alpha2B; Table 10,5.53 µM
same,Ki,5ht2a; Table 10,3.79 µM
same,Ki,D4; Table 10,> 10 µM
same,Ki,H3; Table 10,> 10 µM
same,Ki,Sigma2; Table 10,2.91 µM
same,Ki,H4; Table 10,> 10 µM
same,solubility in aqueous buffer,physchem; pH 5.0,< 0.1 µg/mL
same,solubility in aqueous buffer,physchem; pH 6.2,0.29 µg/mL
same,solubility in aqueous buffer,physchem; pH 7.4,0.14 µg/mL
same,"microsomal stability, remaining",[8],0.03%
same,CC50,[12],> 50 µM
same,Ki,DOR [9]; [13],5.35 µM
same,Ki,MOR [10]; [13],1.9 µM
same,Ki,D3; Table 10,> 10 µM

# Source: patent publication US9345703B2, “Kappa opioid receptor effectors and uses thereof” (University of Kansas, priority 2011, dated 2016)
